# Experimental data: patent publication US20210254056A1, “IDENTIFICATION AND TARGETED MODULATION OF GENE SIGNALING NETWORKS” (CAMP4 THERAPEUTICS CORPORATION, priority 2017, published 2021)
# Test system: hepatocytes
# Experiment: RNA-seq of hepatocytes treated with Phase III failure compounds
# Settings: for significant changes in gene expression: RNA-seq of Table 36, FPKM≥0.5, log 2(fold-change)≥1, q-value≤0.05; for significant modulation of expression of any of the genes analyzed: p≤0.05
# Method: RNA-seq was performed to determine the effects of the compounds on hepatocytes.
# Significance was determined by the criteria of FPKM≥0.5, a log 2(fold-change)≥1, and a […].
smiles,measurement,setting,value
COCCOc1ccc(N2CCN(CCn3ncc4c3nc(N)n3nc(-c5ccco5)nc43)CC2)cc1 [Preladenant],Number (#) of genes having significantly changed expression,"RNA-seq, Phase III failure compounds, hepatocytes, significance: FPKM≥0.5, log 2(fold-change)≥1, q-value≥0.05 (so in the source)",317
same,significant modulation of expression of disease genes,"RNA-seq, q≤0.05, hepatocytes, genes in the value or listed in the block",significantly (q≤0.05) modulate expression
same,"B2M expression, RNA-seq result","gene B2M, hepatocytes",0.09
same,"B9D2 expression, RNA-seq result","gene B9D2, hepatocytes",−0.56
same,"BAAT expression, RNA-seq result","gene BAAT, hepatocytes",−0.58
same,"BBOX1 expression, RNA-seq result","gene BBOX1, hepatocytes",−0.56
same,"BBS10 expression, RNA-seq result","gene BBS10, hepatocytes",−0.21
same,"BCHE expression, RNA-seq result","gene BCHE, hepatocytes",−0.63
same,"BCKDHB expression, RNA-seq result","gene BCKDHB, hepatocytes",−0.78
same,"BCKDK expression, RNA-seq result","gene BCKDK, hepatocytes",−0.48
same,"BCO1 expression, RNA-seq result","gene BCO1, hepatocytes",−1.07
same,"BCR expression, RNA-seq result","gene BCR, hepatocytes",−0.62
same,"BLNK expression, RNA-seq result","gene BLNK, hepatocytes",0.53
same,"BLOC1S3 expression, RNA-seq result","gene BLOC1S3, hepatocytes",0.3
same,"BMPR1A expression, RNA-seq result","gene BMPR1A, hepatocytes",0.11
same,"BRAF expression, RNA-seq result","gene BRAF, hepatocytes",0.46
same,"BSCL2 expression, RNA-seq result","gene BSCL2, hepatocytes",−0.26
same,"BTD expression, RNA-seq result","gene BTD, hepatocytes",−0.16
same,"C4A expression, RNA-seq result","gene C4A, hepatocytes",0.16
same,"C9 expression, RNA-seq result","gene C9, hepatocytes",−0.38
same,"C10orf10 expression, RNA-seq result","gene C10orf10, hepatocytes",0.14
same,"C10orf11 expression, RNA-seq result","gene C10orf11, hepatocytes",−0.32
same,"C15orf41 expression, RNA-seq result","gene C15orf41, hepatocytes",−0.17
same,"CA2 expression, RNA-seq result","gene CA2, hepatocytes",0.76
same,"CA5A expression, RNA-seq result","gene CA5A, hepatocytes",−0.56
same,"CA12 expression, RNA-seq result","gene CA12, hepatocytes",0.43
same,"CAV1 expression, RNA-seq result","gene CAV1, hepatocytes",−0.02
same,"CCND1 expression, RNA-seq result","gene CCND1, hepatocytes",−0.89
same,"CD46 expression, RNA-seq result","gene CD46, hepatocytes",0.34
same,"CD81 expression, RNA-seq result","gene CD81, hepatocytes",−0.26
same,"CD320 expression, RNA-seq result","gene CD320, hepatocytes",−0.95
same,"CDAN1 expression, RNA-seq result","gene CDAN1, hepatocytes",−0.32
same,"CDH1 expression, RNA-seq result","gene CDH1, hepatocytes",−0.29
same,"CEP19 expression, RNA-seq result","gene CEP19, hepatocytes",−0.54
same,"CEP83 expression, RNA-seq result","gene CEP83, hepatocytes",0.05
same,"CEP164 expression, RNA-seq result","gene CEP164, hepatocytes",−0.48
same,"CEP290 expression, RNA-seq result","gene CEP290, hepatocytes",0.41
same,"CFB expression, RNA-seq result","gene CFB, hepatocytes",0.26
same,"CFHR2 expression, RNA-seq result","gene CFHR2, hepatocytes",−0.22
same,"CHRM3 expression, RNA-seq result","gene CHRM3, hepatocytes",0.06
same,"CIDEC expression, RNA-seq result","gene CIDEC, hepatocytes",−1.38
same,"CLDN1 expression, RNA-seq result","gene CLDN1, hepatocytes",−0.26
same,"COG1 expression, RNA-seq result","gene COG1, hepatocytes",−0.08
"CCCn1c(=O)c2[nH]c(C34CC5CC(CC3C5)C4)nc2n(CCC)c1=O [Rolofylline (KW-3902), Rolofylline]",significant changes in gene expression,,not observed to cause any significant changes in gene expression
same,significant modulation of expression of any of the genes analyzed,"RNA-seq, hepatocytes",not observed to significantly modulate expression
CNC1(C)[C@H]2CCC(C2)C1(C)C.Cl (stereo partly drawn) [S-(+)-MecaMylaMine Hydrochloride],significant changes in gene expression,,not observed to cause any significant changes in gene expression
same,significant modulation of expression of any of the genes analyzed,"RNA-seq, hepatocytes",not observed to significantly modulate expression
